What all share (assay type): cell-based
Assay [1] concerns rat glioma C6 cancer cells. Nature of the assay: MTT assay on rat glioma C6 cells. The settings on record: 72 h, 5-80 μM, read-out: The inhibitory effect IC50 on rat glioma C6 cancer cells. How it is done:
The Antiproliferative Activities of Arene Ruthenium (II) Complexes Against Rat Glioma C6 Cancer Cells.
(§1) The antiproliferative effects of arene ruthenium (II) complex against rat glioma C6 cells were evaluated by MTT assay. Discarding the medium of the rat glioma C6 cells in exponential growth phase, washing the cells twice with phosphate-buffered saline (PBS), dissociating into single cells by digesting with 1 mL trypsin, counting the cells. Adding fresh medium to dilute cell population to 1.5×10^4 cells/mL, inoculating into 96-well tissue culture plates (3×10^3 cells per well) with 200 μL/well in 6 wells of each group, repeating twice, and then culturing at 37° C. in 5% CO2 saturated humidity incubator for 16 h. After adherent cells are apparent, removing the supernatant carefully and adding DMEM media. Meanwhile, the cells were incubated with different concentrations of arene ruthenium (II) complexes with a final concentration of 5, 10, 20, 40 and 80 μM respectively, and maintain the total volume at 200 μL/well. Thereafter, the cells were cultured for 72 h. At the end of incubation, 20 μL/well of MTT solution (5 mg/mL) was added and incubated for 4 h. Removing the supernatant carefully and replaced with 150 μL/well of DMSO and oscillated for 10 min to ensure complete dissolution of the formazan crystallization. The absorbance values were measured at 490 nm using a microplate reader. Cell viability was calculated according to the following formula: Cell viability (%)=A490 nm (cells in experimental group)/A490 nm (cells in control group)×100%
According to the values of cell viability, calculating the inhibitory activities (IC50) of the target complex against rat glioma C6 cells.
On the technique in general: Formazan colour is commonly taken as a measure of viable cells.

Assay [2] has as its system MDA-MB-231 breast cancer cells. The assay can be described thus: MTT assay on MDA-MB-231 breast cancer cells. The settings on record: 72 h, 5-80 μM, read-out: The inhibitory effect IC50 on MDA-MB-231 breast cancer cells. As for the experimental part:
The Anti-Invasion Activities of Arene Ruthenium (II) Complexes Against MDA-MB-231 Breast Cancer Cells.
The anti-invasion activities of arene ruthenium (II) complexes against MDA-MB-231 breast cancer cells was evaluated by MTT assay. Discarding the medium of the MDA-MB-231 breast cancer cells in exponential growth phase, washing the cells twice with phosphate-buffered saline (PBS), dissociating into single cells by digesting with 1 mL trypsin, counting the cells. Adding fresh medium to dilute cell population to 1.5×10^4 cells/mL, inoculating into 96-well tissue culture plates (3×10^3 cells per well) with 200 μL/well in 6 wells of each group, repeating twice, and then culturing at 37° C. in 5% CO2 saturated humidity incubator for 16 h. After adherent cells are apparent, removing the supernatant carefully and adding DMEM media. Meanwhile, the cells were incubated with different concentrations of arene ruthenium (II) complexes with a final concentration of 5, 10, 20, 40 and 80 μM respectively and maintain the total volume at 200 μL/well. Thereafter, the cells were cultured for 72 h. At the end of incubation, 20 μL/well of MTT solution (5 mg/mL) was added and incubated for 4 h. Removing the supernatant carefully and replaced with 150 μL/well of DMSO and oscillated for 10 mins to ensure complete dissolution of the formazan crystallization. The absorbance values were measured at 490 nm using a microplate reader. Cell viability was calculated according to the following formula: Cell viability (%)=A490 nm (cells in experimental group)/A490 nm (cells in control group)×100%
According to the values of cell viability, calculating the inhibitory activities (IC50) of the target complex against MDA-MB-231 cells.

Assay [3] concerns human esophageal carcinoma EC-1 cells. Nature of the assay: MTT assay on human esophageal carcinoma EC-1 cells. The settings on record: 72 h, 5-80 μM, read-out: The inhibitory effect IC50 on human esophageal carcinoma EC-1 cells. As for the experimental part:
The Antiproliferative Activities of Arene Ruthenium (II) Complexes Against Human Esophageal Carcinoma EC-1 Cells.
as §1, with “complex against human esophageal carcinoma EC-1 cells were” for “complex against rat glioma C6 cells were”, “medium of human esophageal carcinoma EC-1 cells in” for “medium of the rat glioma C6 cells in”, “with 200 µL/well in 6” for “with 200 μL/well in 6”, “80 μM respectively and maintain” for “80 μM respectively, and maintain”, “and incubated at 37° C. for 4” for “and incubated for 4”
According to the values of cell viability, calculating the inhibitory activities (IC50) of the target complex against human esophageal carcinoma EC-1 cells.

The next assay deals with MDA-MB-231 cells. The assay can be described thus: Cell cycle analysis by flow cytometry (PI staining). The settings on record: FIG. 75. How it is done:
After incubating with arene ruthenium (II) complex RAP07, the cell cycle arrest of MDA-MB-231 cells was analyzed with an Epics XL-MCL flow cytometer. The general method is: Trypsinizing the cells with trypsin, washing the cells with phosphate-buffered saline (PBS), and fixing the cells with 70% ethanol overnight at −20° C. Washing the fixed cells with phosphate-buffered saline (PBS) and staining with propidium iodide (PI) for 4 hours in the dark. Finally, the cell cycle arrest was analyzed using an Epics XL-MCL flow cytometer, cell cycle distribution was analyzed using MultiCycle software (Phoenix Flow Systems, San Diego, Calif.). The number of apoptotic cells with sub-diploid DNA were determined by measuring the […] in the cell cycle, every 10000 cells of each sample were recorded.
(In general: Flow cytometry measures light scatter and fluorescence of single cells or particles in a stream.)

Here are results for one substance from US10358455B2, “Arene ruthenium complex, preparation method and utilization thereof” (Guangdong Pharmaceutical University, priority 2017, dated 2019).

A word on the IC50: it is the concentration needed to halve the response being measured. Turning to [(η^6-p-cymene)Ru(p-BrPIP)Cl]Cl [RAP07], the half-inhibitory concentration (IC50) in assay [1] worked out at 5.6 ± 0.2 µM; in assay [2] it was 8.33 ± 0.6 µM; in assay [3], 18.1 ± 1.7 µM. For the same substance, the “Cell cycle arrest of MDA-MB-231 cells” value in the assay with MDA-MB-231 cells is “Induces the S-Phase Arrest”.
